Data on 2 compounds can be found in patent US20090192327A1, “METHODS AND COMPOSITIONS FOR INHIBITING BIOFILMS” (Sequoia Sciences, Inc., priority 2004, published 2009).

Series [1] has as its system E. coli. The experiment in a line: Dose/response biofilm assay against E. coli (crystal violet, 540 nm). Type of series: cell-based, Escherichia coli. Here is the method: In this example, dose/response characteristics of the biofilm inhibitors were measured using compound 108. The assay employed to measure such dose/response characteristics was adapted from a reported protocol. See Pratt and Kolter, 1998, Molecular Microbiology, 30: 285-293; and Li et al., 2001, J. Bacteriol., 183: 897-908.
The biofilm inhibitory effect of compound 108 was then evaluated at different times and concentrations. In the first assay, compound 108 was added to the test system at the same time as the E. coli inoculum. Specifically, compound 108 was added to the system at final concentrations of 0, 1, 2, 5, and 10 μg/mL along with 50 μL of E. coli inoculum and 150 μL of LB media to measure its ability to inhibit the formation of biofilms. In a second assay, compound 108 was added after a biofilm had formed, i.e., 24 hours after the assay plate was inoculated with E. coli in LB media. In a third assay, compound 108 was tested at 0, 1, 2, 5, 10, and 15 μg/mL against E. coli in LB media with 0.2% glucose (whereby compound 108 was introduced into the system at the time of inoculation).
The suspension culture in each of the assay systems described above was drained from the plate and the residual biofilm, if any, was washed three (3) times with water. A solution containing 0.1% crystal violet was added to each well and maintained thereon for approximately 20 minutes. Following the staining procedure, each well was rinsed three (3) times with water. Each well was then analyzed spectrophotometrically in a microtiter plate reader at 540 nm to quantitate approximate biofilm mass and inhibition of biofilm growth by comparison to a negative control, which included inoculum and growth media alone.

The test system of series [2] is Pseudomonas aeruginosa. The experiment in a line: Microtiter plate biofilm inhibition assay (crystal violet). In kind it is cell-based. The following applies: 10 μg/ml, LB media with 0.2% glucose, 24 hours at room temperature, average of three wells. Here is the method: A microtiter plate assay was used to quantitatively measure the effect each tested compound had on the ability of bacteria to form a biofilm. In this example, a concentrated solution of each compound tested was loaded separately into three separate wells of a polystyrene microtiter plate. In addition, each assay included triplicate wells correlating to negative and positive controls. For the positive controls, biofilm inhibitors of known activity were used, whereas no inhibitors were added to wells correlating to negative controls. […] Thus, each well contained a final volume of approximately 200 μl (not including the volume of the concentrated inhibitor). […] The microtiter plates were then placed on a shaker for 24 hours at room temperature. After the 24 hour incubation period, the microtiter plate was removed from the shaker, rinsed, and stained. During the rinsing step, the test compound, media, and bacterial inoculum solution was drained from the plate, approximately 300 μl of 0.1M phosphate buffered saline (PBS) was added to each well, which was subsequently drained from the plate. The rinsing step removed any suspended cells from the assay. 0.1% crystal violet stain was added to each well for approximately 20 minutes. Next, the crystal violet solution was drained from the microtiter plate. The plate was rinsed with PBS as described above four (4) times to remove any excess stain from the plate. Following the PBS rinsing steps, the plate was eluted with 250 μl/well of ethanol, which improved the detection of the stain. The plate was immediately analyzed spectrophotometrically at 540 nm using a microtiter plate reader. The inhibitory effect each compound had on the bacteria's ability to form a biofilm on the surface of each well was determined as follows: The absorbance values observed for each set of three (3) wells correlating with a test compound or control were averaged. The average absorbance value for each test compound was compared to the average absorbance value of the negative control (the positive control was employed to verify proper assay function). In general, biofilm inhibition activity is inversely proportional to absorbance values, whereby, for example, low absorbance values correlate with significant inhibition activity and high absorbance values correlate with small or no inhibition activity. The approximate percent inhibition observed for each compound was calculated by comparing the average absorbance value for each test compound to the average absorbance value for the negative controls. Table 2 summarizes the average percent inhibition observed for the tested compounds listed against biofilms generated by Pseudomonas aeruginosa.

Another series deals with Escherichia coli. The experiment in a line: Minimum inhibitory concentration (NCCLS broth microdilution). Type of series: cell-based. The following applies: LB media with 0.2% glucose, 35° C. for 20-24 hours. How it is done:
(§1) The minimum inhibitory concentrations (MICs) for several of the specific biofilm inhibitors described herein were determined against several targets, including P. aeruginosa, E. coli, and Staphylococcus aureus. The MICs of the biofilm inhibitors were measured using the reference broth microdilution method recommended by the National Committee for Clinical Laboratory Standards (NCCLS).
(§2) […]. The negative control, generally, included the solvent in which the test compounds were dissolved. In this example, the wells correlating to the negative controls included ethanol (without any biofilm inhibitors).
(§3) In this example, 150 μl of sterile media was added to each well (LB media with 0.2% glucose), along with appropriate volumes of concentrated solutions of the inhibitors to be tested, followed by 50 μl of bacterial inoculum. Thus, each well contained a final volume of approximately 200 μl (not including the volume of the concentrated inhibitor). […]. The plate was subsequently rinsed, stained, and analyzed in accordance with the procedures described in Example 1.
(§4) Tables 7, 8, and 9 summarize the data observed and, specifically, the MICs calculated for the several compounds referenced therein against P. aeruginosa, E. coli, and S. aureus, respectively. The minimum inhibitory concentrations were calculated as the lowest inhibitor concentration at which biofilm inhibition was observed.
For orientation: Broth dilution looks for growth in wells or tubes with falling amounts of substance.

Another series has as its system Staphylococcus aureus. The description is as above. Type of series: cell-based. The following applies: LB media with 0.2% glucose; 35° C. for 20-24 hours. Here is the method:
as §1, §2, §3, §4

Series [3] relates to Pseudomonas aeruginosa. Described as above. Type of series: cell-based. Conditions: LB media with 0.2% glucose, 35° C. for 20-24 hours. Here is the method:
The minimum inhibitory concentrations (MICs) for several of the specific biofilm inhibitors described herein were determined against several targets, including P. aeruginosa, E. coli, and Staphylococcus aureus. The MICs of the biofilm inhibitors were measured using the reference broth microdilution method recommended by the National Committee for Clinical Laboratory Standards (NCCLS). […] In each assay, positive and negative controls were employed, wherein the positive control included an antimicrobial agent with a known potency range that was used to ensure proper assay performance. The negative control, generally, included the solvent in which the test compounds were dissolved. In this example, the wells correlating to the negative controls included ethanol (without any biofilm inhibitors). […] Thus, each well contained a final volume of approximately 200 μl (not including the volume of the concentrated inhibitor). […] After bacterial inoculation and loading of test and control samples, the plate was incubated in an ambient air environment at 35° C. for 20-24 hours. The plate was subsequently rinsed, stained, and analyzed in accordance with the procedures described in Example 1. […] The minimum inhibitory concentrations were calculated as the lowest inhibitor concentration at which biofilm inhibition was observed.

The next series deals with E. coli JM109. In words: Biofilm inhibition assay in 96 well plates (adapted from Pratt and Kolter). Type of series: cell-based, Escherichia coli. Conditions: 10 μg/ml, LB with or without 0.2% glucose, 37° C. for two days without shaking. Here is the method: Such compounds were evaluated using an assay adapted from a protocol reported in Pratt and Kolter, 1998, Molecular Microbiology, 30: 285-293; and Li et al., 2001, J. Bacteriol., 183: 897-908. […] Negative controls included only ethanol (the solvent for each test compound). To quantify the biofilm mass, the suspension culture was removed, the biofilm was washed three times with water, and then stained with 0.1% crystal violet for 20 minutes. Next, the plates were washed three times with water and analyzed by spectrophotometry at 540 nm to quantify the biofilm mass (by comparing the biofilm mass in the wells containing a test compound to that of the control wells).

Series [4] has as its system E. coli. The experiment in a line: Effect on viability/growth of E. coli (absorbance 620 nm). In kind it is cell-based, Escherichia coli. Conditions: 1 to 15 μg/mL; LB media; 37° C. for two days; FIG. 1. Here is the method:
The dose/response behavior of compound 108 was tested against E. coli in LB media with and without 0.2% glucose. First, the effect of compound 108 on the viability of E. coli was measured. Compound 108 was added to a 96-well microtiter plate in triplicate wells to final concentrations of 0, 1, 2, 5, 10, and 15 μg/mL. Compound 108 was added to each well on the plate along with 50 μL of E. coli inoculum and 150 μL of LB and incubated at 37° C. for two days without shaking. After incubation, the plate was analyzed spectrophotometrically at 620 nm to quantitate the approximate levels of E. coli growth. The absorbance values observed for the test wells were averaged and compared to a negative control, i.e., wells containing no biofilm inhibitor.

In series [5] the test system is Pseudomonas aeruginosa strain PAO 1. In words: Rotating disk reactor biofilm test in combination with tobramycin. In kind it is cell-based. Conditions: 48 hours biofilm; compound 110 approximately 100 μg/mL for 24 hours; tobramycin 100 μg/mL for two hours; polystyrene coupons. How it is done:
In this example, compound 110 was tested for biofilm inhibition with Pseudomonas aeruginosa in combination with Tobramycin. Specifically, biofilm formation of P. aeruginosa was evaluated using a standardized biofilm method with a rotating disk reactor (RDR), which is also known as “ASTM Standard Method #E-2196-02.” The rotating disk reactor consisted of a one-liter glass beaker fitted with a drain spout. The bottom of the vessel contained a magnetically driven rotor with six 1.27 cm diameter coupons constructed from polystyrene. The rotor consisted of a star-head magnetic stir bar upon which a disk was affixed to hold the coupons. The vessel (with the stir bar) was placed on a stir plate and rotated to provide fluid shear. A nutrient solution (AB Trace Medium with 0.3 mM glucose, see Table 5 below for specific formulation) was added through a stopper in the top of the reactor at a flow rate of 5 mL/min. The reactor volume was approximately 180 mL. At a volume of 180 mL, the residence time of the reactors was 36 minutes. The reactors were operated at room temperature (c.a. 26° C.). In this example, two RDRs were operated in parallel with one receiving compound 110 and the other serving as an untreated control. […] The plates were incubated for 24 hours at 37° C. before colony forming units (CFU) were determined.

Series [6] has as its system human hepatocellular carcinoma cells (HepG2). In words: Cytotoxicity, fluorometric detection of mitochondrial activity. Type of series: cell-based. The following applies: triplicate, approximate, gross cytotoxicity. The text has this: Met. […] Chlorpromazine (or its equivalent) was used as a positive control.
Series [7] concerns Staphylococcus epidermidis. The experiment in a line: Biofilm inhibition assay against Staphylococcus epidermidis. Type of series: cell-based. Conditions: final concentration of 10 μg/ml, read-out: Inhibition of biofilm formation by S. epidermidis.

SMILES strings stand for the structures. Entries after “also recorded” stand apart in the source; their conditions may differ. Where only a bound is given, the exact number is not on record here.

In the case of `C[C@@H]1CC[C@]2(C(=O)O)CCC3(C)C(=CCC4C5(C)C[C@@H](O)[C@H](O)C(C)(C)C5CCC43C)C2[C@H]1C` (stereo partly drawn) [Compound 108], the “Prevention of biofilm growth at 15 μg/mL” value in the series on E. coli [1] (15 μg/mL, E. coli in LB, added with inoculum, 0 through 50 hours of incubation, FIG. 2) is on record as “almost completely prevent biofilm growth”. In addition, in the series with E. coli [1] (E. coli in LB with 0.2% glucose, added along with the inoculum, FIG. 5), the “Concentration as low as which effective at reducing biofilm mass” value amounted to 1 µg/mL. The “Concentration as low as which reduces existing biofilm mass” value with E. coli [1] (E. coli in LB, added 24 hours after inoculation, FIG. 4) was determined as 1 µg/mL. Besides, the “Concentration as low as which effective in preventing biofilm formation” value in the series with E. coli [1] (E. coli in LB, added along with the inoculum, FIGS. 2 and 3) came out at 1 µg/mL. Besides, the “Estimated mass of existing biofilm after 24 hours of incubation with compound” value in the series on E. coli [1] (each of the concentrations tested (1, 2, 5, 10 μg/mL), added 24 hours after inoculation, approximately 50 hours post inoculation, FIG. 4) was “decreased significantly”. Also, the “Biofilm Inhibition- Pseudomonas aeruginosa” value in the series with Pseudomonas aeruginosa [2] is on record as 52%. Further, the “MIC (μg/mL) - Escherichia coli” value in the series on Escherichia coli is over 15 µg/mL. In addition, the “MIC (μg/mL) - Staphylococcus aureus” value in the series on Staphylococcus aureus was over 32 µg/mL. In the series on Pseudomonas aeruginosa [3], the “MIC (μg/mL) - Pseudomonas aeruginosa” value was over 10 µg/mL. Further, the “Biofilm Inhibition- Escherichia coli” value with E. coli JM109 amounted to 74%. Besides, the “Effect on growth of E. coli” value in the series on E. coli [4] is on record as “did not inhibit the growth; also recorded: does not inhibit the growth”.
The term Inhibition denotes the drop in the measured response relative to a control, in per cent. As a reminder, the inhibition is the relative decrease from the control value, in per cent. Turning to `C[C@H]1[C@H](C)CC[C@]2(C(=O)O)CC[C@]3(C)C(=CC[C@@H]4[C@@]5(C)CC[C@H](O)C(C)(C)[C@@H]5CC[C@]43C)[C@H]12` [Compound 110, ursolic acid], the “CFU (in log 10)” value in series [5] is listed as 7.1 CFU (in log 10). Besides, in series [6], the “Inhibition at 30 μM - Hep G2 cells” value amounted to 2%. In addition, the inhibition at 10 µg/mL with Pseudomonas aeruginosa [2] (Pseudomonas aeruginosa) was 35%; in series [7], about 25%; with E. coli JM109 (Escherichia coli, JM 109, 48 h) it was 80%. For the same compound, the MIC in the series with Escherichia coli (Escherichia coli, read-out: MIC (μg/mL) - Escherichia coli) is over 10 µg/mL; with Pseudomonas aeruginosa [3] (Pseudomonas aeruginosa, read-out: MIC (μg/mL) - Pseudomonas aeruginosa), over 128 µg/mL.
